Like-named read-outs stand apart in the source and are kept apart here.
How the values were obtained:
[1] = test system: Mouse leukemia cell L 1210; experiment: Anti tumor test 1: survival of mice implanted with L 1210 leukemia; format: in vivo; details: i.v. aqueous solution, 100 μmole/kg
[2] = test system: human lung adenocarcinoma A 549; experiment: Anti tumor test 2: growth inhibition of A 549 under the subrenal capsule of mice; format: in vivo; details: Day 14, i.v. aqueous solution, 1000 μmole/kg at Day 1, 5, 9
Excerpt: (§1) The mixture of chloroform and methanol (3:1 V/V) containing egg yolk lecithin (245 μmole), egg yolk sphingomyelin (105 μmole) and Cyarabine prodrug (Example 8) (87.5 and 157.5 μmole respectively) was taken in a round-bottom flask. Liposome suspensions containing Cytarabine prodrug (Concentration: 10 and 18 μmole/ml respectively) were obtained in a similar manner to that of the above-mentioned method.
A fragment of human lung adenocarcinoma A 549 was implanted under the subrenal capsule of BDF female mouse (8 weeks). Cytarabine aqueous solution (dose: 1000 μmole/kg) and above-mentioned liposome suspension containing Cytarabine prodrug (dose: 100 and 180 μmole/kg respectively)were administered intravenously to the mice at a volume of 0.2 ml per mouse body weight 20 g at Day 1, 5 and 9 after implantation. The tumor volume at Day 14 after implantation was measured and the growth inhibition percent was calculated. (In this test, to clarify the anti tumor effect of each preparation, 17-allyl-1,14-dihydroxy-12-[2-(4-hydroxy-3- methoxycyclohexyl)-1-methylvinyl]-23,25-dimethoxy-13,19,21,27-tetramethyl- 11,28-dioxa-4-azatricyclo[22.3.1.0^4,9 ]octacos-18-ene-2,3,10,16-tetraone as immunosuppressive substance(dose: 32 mg/kg) was administered subcutaneously at Day 1, 2, 5, 7, 9 and 12 after implanation.)

[3] = test system: Mouse leukemia cell L 1210; experiment: Anti tumor test 1: survival of mice implanted with L 1210 leukemia; format: in vivo; details: for T/C: mean survival time vs control
Excerpt: as §1, with “(8:2” for “(3:1”, “Cytarabine” for “Cyarabine”, “262.5” for “157.5”, “roundbottom” for “round-bottom”, “20” for “18”, “method. Mouse leukemia cell L 1210 (10^5 cells) were implanted intraperitoneally into BDF female mice (7 weeks).” for “method.”
After 24 hours after inoculation, Cytarabine aqueous solution (dose: 1000 and 3000 μmole/kg respectively), above-mentioned liposome suspension containing Cytarabine prodrug (dose: 100 and 300 μmole/kg respectively)and aqueous solution of N^4 -behenoyl-1-β-arabinofuranosylcytosine (hereinafter referred to as BHAC) which is a known compound as Cytarabine prodrug and is shown by the following structure (dose: 100 and 300 μmole/kg respectively) were administered intravenously to the mouse at a volume of 0.2 ml or 0.3 ml (in case the administration at the dose of 300 μmole/kg of Cytarabine prodrug) per 20 g of mouse body weight. After the treatment, survival of the mice was recorded. [drawing 9]

[4] = Bioavailability Test 1: blood concentration after i.v. administration to rats; design: species or system SD male rats; details: rat, in vivo, iv
Experimental: Chloroform solution (14.3 ml) containing egg yolk lecithin (126 μmole), egg yolk sphingomyelin (54 μmole) and Mitomycin C prodrug (Example 1) (24 μmole) was poured into a round-bottom flask and evaporated at one hour. To this were added sodium cholate (194 mg) and PBS (6 ml) and agitated. A liposome suspension containing Mitomycin C prodrug was obtained according to a similar manner to that of above-mentioned method. The liposome suspension thus prepared was diluted with PBS to obtain the drug concentration of 3.0 μmole/ml and was filtered through a polycarbonate membrane (0.1 μ). 1.0 ml of PBS solution of Mitomycin C or the liposome suspension containing Mitomycin C prodrug prepared by the above-mentioned method was administered intravenously to SD male rats (7 weeks, body weight: about 300 g, 4 per one group) and blood samples were withdrawn at appropriate intervals from subclavian vein. The plasma samples were deproteinzed and the concentration of Mitomycin C was determined by high-performance liquid chromatography.
While Mitomycin C prodrug in the blood was determined by high-performance liquid chromatography after extraction with ethanol from the freeze-dried blood samples.

[5] = Bioavailability Test 2: blood concentration after i.v. administration to mice; format: in vivo, ICR female mice; details: iv, mouse, i.v. PBS solution of Mitomycin C
Experimental: The blood concentrations of Mitomycin C and Mitomycin C prodrug were determined in accordance with the same procedures as described in Bioavailability Test 1.

[6] = Toxicity test: body weight change after i.v. administration to mice; format: in vivo, ICR male mice; details: mouse
Experimental: Each chloroform solution of egg yolk lecithin (126 μmole), egg yolk sphingomyelin (54 μmole) and Mitomycin C prodrug (Example 1) (3.75, 24 and 37.5 μmole respectively) was combined in a round-bottom flask and evaporated to dryness. Liposome suspensions containing Mitomycin C prodrug were obtained according to the same procedures as described above. The liposome suspensions were diluted with PBS to obtain the desired drug concentration (0.15, 0.96 and 1.50 mg/ml as Mitomycin C) and were filtered through polycarbonate membranes (0.1 μ). PBS solution of Mitomycin C (dose: 1.0 and 6.4 mg/kg/day respectively) or above-mentioned liposome suspension containing Mitomycin C prodrug (dose: 1.0, 6.4 and 10 mg/kg/day as Mitomycin C) were administered intravenously to ICR male mice (6 week) at Day 1, 3 and 5 and the body weight change was recorded from Day 1 to 15.

[7] = Bioavailability Test 3: blood concentration after i.v. emulsion or aqueous solution in mice; format: in vivo, ICR female mice; details: mouse, iv, 0.8 umol/animal, read-out: Blood concentration of Mitomycin C Prodrug (Example 1)
Experimental: The liposome suspension containing Mitomycin C prodrug (Example 1), which was prepared in the above Bioavailability Test 1, was diluted with PBS at the concentration of Mitomycin C prodrug of 2.5 μmole/ml and was filtered through a polycarbonate membrane (0.1μ). 0.2 ml of PBS solution of Mitomycin C or the liposome suspension containing Mitomycin C prodrug was administered intravenously to ICR female mice (8 weeks, body weight: about 25 g, 3 per one group) respectively, and the blood samples were withdrawn by cardiac puncture under anesthesia. The blood concentrations of Mitomycin C and Mitomycin C prodrug were determined in accordance with the same procedures as described in Bioavailability Test 1.
Each chloroform solution of Mitomycin C prodrug (Example 1) (4 μmole), Panacete 800 (trademark, prepared by Nihon Yushi Co., Ltd.) (40 mg), egg yolk lecithin (14 mg) and HCO-60 (trademark, prepared by Nikko Chemicals Co., Ltd.) (8 mg) was combined in a round-bottom flask and evaporated to dryness. To this was added PBS (1 ml) and emulsified with a sonicator to give an emulsion containing Mitomycin C prodrug. Each chloroform solution of liitomycin C prodrug (Example 1) (4 μmole) and HCO-60 (24 mg) was combined in a roundbottom flask and evaporated to dryness. The residue was dispersed in 1 ml of PBS and agitated vigorously to yield a clear solution. 0.2 ml of each preparations thus obtained which contained the prodrug at 4 μmole/ml, was administered to mice and the blood concentrations of Mitomycin C and Mitomycin C prodrug were determined according to the same procedures as described in Bioavailability Test 2.

[8] = Conversion Test 1: conversion half life of prodrug to parent compound in rat serum; format: in vitro ADME; details: rat, serum; for half-life: Half life (t 1/2)
Experimental: Chloroform solution containing egg yolk lecithin (84 μmole), egg yolk sphingomyelin (36 μmole) and Mitomycin C prodrug ( 6 μmole) obtained in the below-mentioned Example 1 or 2 was poured into a round-bottom flask and evaporated to dryness.
To this were added sodium cholate (258 mg) and pH 7.4 phosphate buffered saline (hereinafter referred to as PBS) (4.8 ml) and the mixture was agitated to give a clear purple solution.
Sodium cholate was removed from the solution by the Lipoprep dialyzer (detergent removal apparatus prepared by Diachema Co., Ltd.) to give a liposome suspension containing Mitomycin C prodrug.
Chloroform solution containing egg yolk lecithin (70 μmole), egg yolk sphingomyelin (30 μmole) and FR900482 substance prodrug (Example 6)(5 μmole) was poured into a round-bottom flask and a liposome suspension containing FR900482 substance prodrug was obtained in a similar manner to that of above-mentioned method.
Above-mentioned two liposome suspensions containing Mitomycin C prodrug were each diluted with PBS at 2.5 times.
The liposome suspension containing FR900482 substance prodrug was diluted with PBS to obtain the drug concentration of 0.5 μmole/ml and was filtered through millex-GV (trademark: prepared by Millipore Co., Ltd.) filter (0.22μ).
After the liposome suspension and ethanol solution of each prodrug (0.5 ml) were added to mouse, rat or human serum (4.5 ml, 37° C.), samples were taken periodically and the concentration of each prodrug was determined by high-performance liquid chromotography.
Conversion half lives (t 1/2) of each prodrug to each parent compound in various kinds of serum were calculated by the concentration of each prodrug remaining at each time.

[9] = i.v. aqueous solution, 1000 μmole/kg
[10] = i.v. BHAC aqueous solution, 100 μmole/kg
[11] = i.v. BHAC aqueous solution, 300 μmole/kg
[12] = i.v. aqueous solution (4 μmole/ml, 0.2 ml)
[13] = i.v. emulsion (4 μmole/ml, 0.2 ml)

With `Nc1ccn([C@@H]2O[C@H](CO)[C@@H](O)[C@@H]2O)c(=O)n1` [Cytarabine, 1-β-D-arabinofuranosylcytosine] the Mean survival time [1] was 9.5 ± 0.2 days, the T/C ([1]; mean survival time vs control) was 106% and the “Tumor volume mean value ± standard error” value [2] was 17.7 ± 3.2 mm^3. For the same compound, the Inhibition ([2]; tumor growth) was 41.7%, the Mean survival time [3, 9] was 10.8 ± 0.3 days and the T/C [3, 9] was 120%.

For `CO[C@@]12[C@H](COC(N)=O)C3=C(C(=O)C(C)=C(N)C3=O)N1C[C@@H]1N[C@@H]12` [Mitomycin C], the concentration at 5 min [4] was 10.7 µM, the concentration at 0.25 h [4] was 5.54 µM and the concentration at 0.5 h [4] was 3.32 µM. It also gave a concentration at 1 h [4] of 1.04 µM, a concentration at 2 h [4] of 0.11 µM and a concentration at 5 min ([5]; 5 min) of 9.15 µM. For the same compound, the concentration at 0.25 h ([5]; 15 min) was 2.76 µM, the concentration at 0.5 h ([5]; 30 min) was 1.57 µM and the concentration at 1 h ([5]; 1 hr) was 0.11 µM. For the same compound, the Body weight ([6]; i.v. PBS solution, 1.0 mg/kg/day at Day 1, 3, 5, 1 day) was 33.78 g, the Body weight ([6]; i.v. PBS solution, 1.0 mg/kg/day at Day 1, 3, 5, 5 days) was 33.86 g and the Body weight ([6]; i.v. PBS solution, 1.0 mg/kg/day at Day 1, 3, 5, 15 days) was 35.26 g. For the same compound, the Body weight ([6]; i.v. PBS solution, 6.4 mg/kg/day at Day 1, 3, 5, 1 day) was 35.54 g, the Body weight ([6]; i.v. PBS solution, 6.4 mg/kg/day at Day 1, 3, 5, 5 days) was 29.36 g and the “Death (in body weight column, 15 days)” value ([6]; i.v. PBS solution, 6.4 mg/kg/day at Day 1, 3, 5, at 8 days) was “All died”.

With `CCCCCCCCCCCCCCCCCCCCCC(=O)Nc1ccn([C@@H]2O[C@H](CO)[C@@H](O)[C@@H]2O)c(=O)n1` [BHAC, N^4-behenoyl-1-β-arabinofuranosylcytosine] the Mean survival time [3, 10] was 11.0 ± 0.3 days, the Mean survival time [3, 11] was 15.3 ± 0.5 days and the T/C [3, 10] was 122%. For the same compound, the T/C [3, 11] was 170%.

Work on `CO[C@@]12[C@H](COC(N)=O)C3=C(C(=O)C(C)=C(N)C3=O)N1C[C@H]1[C@@H]2N1C(=O)CNC(=O)O[C@H]1CC[C@@]2(C)C(=CC[C@H]3[C@@H]4CC[C@H]([C@H](C)CCCC(C)C)[C@@]4(C)CC[C@@H]32)C1` [Example 1, [1aS-(1aα, 8β, 8aα, 8bα)]-6-amino-8-carbamoyloxymethyl-N'-[N-(cholest-5-en-3β-oxycarbonyl)glycyl]-1,1a,2,8,8a,8b-hexahydro-8a-methoxy-5-methy-aziridino[2',3':3,4]pyrrolo [1,2-a]indole-4,7-dione] yielded a concentration at 1 h [7, 12] of 186 µM, a concentration at 4 h [7, 12] of 73.9 µM and a concentration at 7 h [7, 12] of 22.2 µM. It also gave a concentration at 1 h [7, 13] of 251 µM, a concentration at 4 h [7, 13] of 81.6 µM and a concentration at 7 h [7, 13] of 39 µM. For the same compound, the “Half life (t 1/2)” value [8] was 10.0 h, the half-life [8] was 5.7 h and the Body weight ([6]; i.v. liposome suspension, 1.0 mg/kg/day as Mitomycin C at Day 1, 3, 5, 1 day) was 32.78 g. For the same compound, the Body weight ([6]; i.v. liposome suspension, 6.4 mg/kg/day as Mitomycin C at Day 1, 3, 5, 1 day) was 33.86 g and the Body weight ([6]; i.v. liposome suspension, 10.0 mg/kg/day as Mitomycin C at Day 1, 3, 5, 1 day) was 35.14 g.

In the case of `CO[C@@]12[C@H](COC(N)=O)C3=C(C(=O)C(C)=C(N)C3=O)N1C[C@H]1[C@@H]2N1C(=O)CO[C@H]1CC[C@@]2(C)C(=CC[C@H]3[C@@H]4CC[C@H]([C@H](C)CCCC(C)C)[C@@]4(C)CC[C@@H]32)C1` [Example 2, [1aS-(1aα, 8β, 8aα,8bα)]-6-amino-8-carbamoyloxymethyl-N-(cholest-5-en-3β-oxyacetyl) 1,1a,2,8,8 a,8b-hexahydro-8a-methoxy-5-methyl-aziridino [2',3':3,4]pyrrolo[1,2-a]indole-4,7-dione], the “Half life (t 1/2)” value [8] is reported as 17.3 h and the half-life [8] is reported as 9.3 h.
